According to patent US20260335238A1, “SPRAY-DRIED COMPOSITIONS COMPRISING CGRP RECEPTOR ANTAGONISTS” (OREXO AB, priority 2023, published 2026):

Assay: Chemical stability of spray-dried zavegepant powder on storage, assay and % RS by HPLC/UV
Type: physicochemical
Conditions: zavegepant formulated as spray-dried powder, stored up to 6 months at 25/60 and 40/75
Method: The assay and purity, determined by HPLC/UV analysis, was 103.4% with a % RS of 1.46%.
Amounts of around 100 mg of the spray-dried powder from Example 2 above was dispensed into plastic DUMA containers placed in heat-sealed aluminium pouches together with a 4 Å molecular sieve desiccant. Two containers were placed inside a climate cabinet at 40 °C and 75% relative humidity (40/75) and two containers were placed inside a climate cabinet at 25 °C and 60% relative humidity (25/60).
The chemical stability of the drug substance after 6 months, with assay and total amounts of impurities and degradation products expressed as % RS, is summarized for the different climates in Table 3 below, in which NA means ‘not analysed’.

Cc1cc(C[C@@H](NC(=O)N2CCC(c3cc4ccccc4[nH]c3=O)CC2)C(=O)N2CCN(C3CCN(C)CC3)CC2)cc2cn[nH]c12 [zavegepant]
chemical stability (observed changes in % RS): surprisingly good
